Data on one compound can be found in patent US6303596A, “Use of taurolidine for treatment of leukemias” (priority 2000, dated 2001).

The test system of one assay is tissue factor (TF). The experiment in a line: TF activity (coagulation) assay on LPS-induced PBMC treated in whole blood. The assay is classed as cell-based, human. The method, then:
In order to determine if taurolidine would inhibit LPS-induced TF expression in PBMC in their native milieu, i.e., whole blood, a tissue factor activity assay was performed. LPS (10 ng/ml) and taurolidine (100-500 μg/ml) or equal dilutions of the taurolidine vehicle were added to 5 ml aliquots of heparinized blood, and the blood was incubated in 50 ml centrifuige tubes at 37° C., rotating on a horizontal rotator at 120 rpm. After 4 hours, PBMC were purified from the blood using Histopaque as described previously. Cells were lysed by 3 freeze-thaw cycles, and used as a source of TF in coagulation assays. For these assays, 50 μl of lysate (at 2×10^7 cells/ml) was added to 50 μl pooled normal human plasma, incubated for 30 seconds at 37° C., then 50 μl of 25 MM CaCl2 was added and clot formation assayed using a Diagnostica Stago ST4 coagulometer. Protein content of the cell samples was determined by bicinchoninic acid assay (Pierce Chemical Company, Rockford, Ill.), and used to normalize the clotting data. A standard curve was made with descyto TF reconstituted in PS/PC vesicles according to the method of Mimms et al. (Mimms, et al., "Phospholipid vesicle formation and transmembrane protein incorporation using octyl glucoside," Biochemistry 20:833-840 (1981)). One unit of TF was defined as that which caused clot formation at 50 seconds of incubation with CaCl2. The TF activity assays were performed on LPS-induced PBMC after 4 hour treatment in whole blood. A dose-response effect of taurolidine on monocyte TF is illustrated in Table II. […] Thus, higher concentrations of taurolidine were required to inhibit TF when the PBMC were treated with whole blood when compared to PBMC in culture medium. Further, lower concentrations of taurolidine were required to down-regulate TF expression than were needed to induce apoptosis as described below.
^a Heparinized blood was incubated in the presence of LPS and varying
amounts of taurolidine, then PBMC were purified, and coagulation assays
performed on cell lysates. Units of TF per mg protein were calculated as
described above, and data expressed as percentage of LPS-only ("control")
samples. Data shown are mean ± S.D. of two experiments.

The test system of the next assay is HL-60 cells. The experiment in a line: trypan blue exclusion, HL-60. The assay is classed as cell-based, human. Conditions: HL-60, 25 μg/ml taurolidine, versus MM6, K562, Jurkat. The method, then:
FIGS. 7A and 7B depict cell viability and growth rates for HL-60 cell line following taurolidine treatment, in terms of % trypan blue negative cells and % cell number, respectively. Cells were treated with various concentrations of taurolidine for 4 hours in AIM-V+0.01% BCS. After aliquots were collected for LDH assay, the remainder of the culture was rinsed in HBSS and resuspended in RPMI+10% BCS without taurolidine. Counts of trypan blue-negative cells (FIG. 7A), and total cell number (FIG. 7B), were recorded daily thereafter (with the measurement at Day 1 being made immediately after the 4 hour taurolidine treatment). […] Doubling times were determined under each condition, and expressed as a percentage of the rate of doubling of untreated cells. […]
In these experiments, integrity of cell membranes following taurolidine treatment was assessed by exclusion of trypan blue and by measuring the release of LDH in MM6, K-562, HL-60, and REH cells. […] A parallel aliquot of cells was lysed by three cycles of freeze/thaw and the quantity of LDH released was taken to be 100%. […]
HL-60 cells treated with 50 μl taurolidine. In these samples, LDH present in the culture medium was 8.3±2.3% of that released by completely lysed cells, compared with 2.3±0.8% measured in control cultures. […]

On to `O=S1(=O)CCN(CN2CCS(=O)(=O)NC2)CN1` [taurolidine, 4,4'-methylenebis(perhydro-1,2,4-thiadiazin 1,1-dioxide)], for which the activity at 100 µg/mL in the assay on tissue factor (TF) (Homo sapiens, PBMC, 100 μg/ml taurolidine, 4 h, mean ± S.D. of two experiments, read-out: coagulation activity of LPS-induced PBMC, % of control) was determined as 87.7 ± 6.6%. For the same compound, in the assay on tissue factor (TF) (Homo sapiens, PBMC, 100 μg/ml taurolidine, 4 h, read-out: decrease of TF activity), the inhibition at 100 µg/mL was 12%. The activity at 200 µg/mL in the assay with tissue factor (TF) (Homo sapiens, PBMC, 200 μg/ml taurolidine, 4 h, mean ± S.D. of two experiments, read-out: coagulation activity of LPS-induced PBMC, % of control) amounted to 41.7 ± 8%. For the same compound, the inhibition at 200 µg/mL in the assay with tissue factor (TF) (Homo sapiens, PBMC, 200 μg/ml taurolidine, 4 h, read-out: decrease of TF activity) was roughly 60%. In addition, in the assay with tissue factor (TF) (Homo sapiens, PBMC, 500 μg/ml taurolidine, 4 h, mean ± S.D. of two experiments, read-out: coagulation activity of LPS-induced PBMC, % of control), the activity at 500 µg/mL came to 26.5 ± 10.6%. Moreover, the inhibition at 500 µg/mL in the assay with tissue factor (TF) (Homo sapiens, PBMC, 500 μg/ml taurolidine, 4 h, read-out: loss of TF activity) was roughly 75%. The “reduction of TF activity of LPS-induced monocytes” value in the assay on tissue factor (TF) (taurolidine as low as 200 μg/ml) was “significant reduction”. Further, the “trypan blue staining after treatment, sensitivity” value with HL-60 cells is reported as “more sensitive”.
